{"source": "paper PMC7549214", "about": "(Malaria Journal, 2020)", "key": {"in vitro [1]": {"experiment": "in vitro", "type": "in vitro ADME", "settings": "rat, plasma"}, "CYP2C19": {"molecular_target": "CYP2C19 (Homo sapiens, UniProt P33261)", "sequence (P33261 whole entry, species assumed)": "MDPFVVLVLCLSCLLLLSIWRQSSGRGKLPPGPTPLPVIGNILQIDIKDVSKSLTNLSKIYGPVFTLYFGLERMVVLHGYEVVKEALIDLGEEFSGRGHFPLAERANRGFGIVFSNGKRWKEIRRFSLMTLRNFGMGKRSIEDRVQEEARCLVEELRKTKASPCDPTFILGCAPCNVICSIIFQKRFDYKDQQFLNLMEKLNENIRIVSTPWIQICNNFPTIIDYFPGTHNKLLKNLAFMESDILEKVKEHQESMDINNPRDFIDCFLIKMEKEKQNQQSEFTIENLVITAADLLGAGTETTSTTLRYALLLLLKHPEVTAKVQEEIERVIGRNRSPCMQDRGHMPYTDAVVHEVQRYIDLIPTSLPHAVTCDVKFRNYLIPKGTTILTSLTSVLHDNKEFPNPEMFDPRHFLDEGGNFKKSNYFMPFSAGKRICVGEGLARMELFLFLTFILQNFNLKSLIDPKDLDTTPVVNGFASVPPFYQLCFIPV", "experiment": "CYP inhibition", "type": "in vitro ADME", "settings": "read-out: CYP inhibition IC50, CYP 2C19"}, "in vitro [2]": {"experiment": "in vitro", "type": "in vitro ADME", "settings": "dog, plasma"}, "PfHDAC1": {"molecular_target": "T1, PfHDAC1 (Plasmodium falciparum, UniProt Q7K6A1)", "T1 construct": "His-tag; FLAG-tag; purchased BPS Bioscience", "T1 sequence (Q7K6A1 1-449)": "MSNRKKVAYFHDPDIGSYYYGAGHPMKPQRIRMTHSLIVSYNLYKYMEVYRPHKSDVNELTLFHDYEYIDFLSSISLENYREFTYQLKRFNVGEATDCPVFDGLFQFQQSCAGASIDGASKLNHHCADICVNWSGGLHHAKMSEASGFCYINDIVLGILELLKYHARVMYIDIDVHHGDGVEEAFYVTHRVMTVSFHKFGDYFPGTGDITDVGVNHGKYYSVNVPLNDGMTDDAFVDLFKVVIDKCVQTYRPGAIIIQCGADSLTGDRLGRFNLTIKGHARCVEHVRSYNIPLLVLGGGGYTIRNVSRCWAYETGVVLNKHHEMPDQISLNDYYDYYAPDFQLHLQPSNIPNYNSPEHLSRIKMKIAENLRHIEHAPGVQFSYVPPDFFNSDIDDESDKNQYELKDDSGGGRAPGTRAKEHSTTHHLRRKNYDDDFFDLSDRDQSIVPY", "experiment": "PfHDAC1 fluorescent activity assay", "type": "biochemical"}, "Dd2": {"tested_on": "Dd2", "experiment": "microbe, parasite or virus in culture", "type": "cell-based", "settings": "Plasmodium falciparum"}, "Microsomal stability": {"experiment": "Microsomal stability", "type": "in vitro ADME, mouse", "settings": "MLM, Test Conc. 10 µM"}, "CYP 2D6": {"molecular_target": "CYP 2D6 (Homo sapiens, UniProt P10635)", "sequence (P10635 whole entry, species assumed)": "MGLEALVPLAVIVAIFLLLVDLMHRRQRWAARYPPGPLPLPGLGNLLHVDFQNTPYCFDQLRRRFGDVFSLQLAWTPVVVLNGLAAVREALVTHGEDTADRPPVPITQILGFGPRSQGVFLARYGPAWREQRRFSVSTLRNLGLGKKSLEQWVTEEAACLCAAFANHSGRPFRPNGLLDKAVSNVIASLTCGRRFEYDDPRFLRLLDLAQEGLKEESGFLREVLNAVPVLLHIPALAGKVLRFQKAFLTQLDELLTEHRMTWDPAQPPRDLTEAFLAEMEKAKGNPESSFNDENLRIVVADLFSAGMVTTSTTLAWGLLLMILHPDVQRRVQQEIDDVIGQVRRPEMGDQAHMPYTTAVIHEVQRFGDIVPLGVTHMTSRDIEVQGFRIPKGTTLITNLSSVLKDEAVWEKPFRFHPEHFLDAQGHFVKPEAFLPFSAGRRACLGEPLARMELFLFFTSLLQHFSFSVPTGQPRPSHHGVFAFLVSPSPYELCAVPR", "experiment": "CYP inhibition", "type": "in vitro ADME"}, "[3]": {"experiment": "Repeated dose 14-day toxicokinetics (TK) study", "type": "in vivo, Sprague–Dawley rats", "settings": "for Cmax / half-life / AUC(0-inf) / AUC(0-t) / Tmax: Sprague-Dawley, rat, po, 100 mg/kg"}, "[4]": {"experiment": "Single dose pharmacokinetics in Balb/C mice", "type": "in vivo", "settings": "normal Balb/C mice; for half-life / AUC(0-t) / Cmax / Tmax: male, mouse, plasma; for half-life: BALB/c, 50 mg/kg", "method": "(§1) Female […] mice (n = 3) aged 7-8 weeks and weighing around 20 to 22 g were used for experimentation after a minimum 7 days of acclimation. Male BALB/c mice (n = 3) aged 8-10 weeks and weighing around 20 to 22 g were also used for experimentation after a minimum 7 days of acclimation. […] Feed was offered 2 h post-dose. Under mild isofluorane […], blood samples were collected by retro-orbital route into labelled centrifuge tubes containing K2EDTA anticoagulant at a concentration of 2 mg/mL of blood during the next 24 h post-dose. Collected blood samples were centrifuged at 4000 rpm for 10 min, and harvested plasma samples were stored at - 80 °C until analysis."}, "in vitro [5]": {"experiment": "in vitro", "type": "in vitro ADME", "settings": "mouse, plasma"}, "[6]": {"tested_on": "Plasmodium falciparum 3D7", "experiment": "Plasmodium falciparum asexual blood-stage (ABS) assay", "type": "cell-based", "settings": "Plasmodium falciparum, 3D7", "method": "Plasmodium falciparum 3D7 strain was used for the P. falciparum asexual blood-stage (ABS) assay, for which the cells were resuscitated from the stabilate and maintained at 5% haematocrit. Red blood cells obtained from the hospital were used to maintain the culture at 1% parasitaemia while screening.\nPlasmodium falciparum 3D7 cells were used as a target strain for the assay. Mefloquine (Sigma-Aldrich) was used as a standard inhibitor. At day 1, […] of 10 mM mefloquine was added to columns 12 and 24 of the sterile 384-well black, clear-bottom, cell culture assay plates followed by compound curves which were added using Echo. The P. falciparum 3D7 cells were counted and 20 ml of culture was prepared at 5% haematocrit, 0.3% parasitaemia (as one batch, i.e., 12 plates, prepare 260 ml, to allow for WellMate prime volume) for each plate. From this, 50 µl of culture was added to all wells on all plates using WellMate with small bore tubing on full (S-1) speed. The plates were placed on the bottom shelf of the incubator, with a maximum stack height of 4 plates, preferring the front of the shelf and were incubated for 72 h at 37 °C in an atmosphere of special gas mix (1% O2, 3% CO2, balance N2).\n. Ten μl of the prepared buffer was added to each well on each of the assay plates and incubated overnight in the dark at room temperature. The plates were read on Victor plate reader using ‘384sybrgreen’ protocol (excitation 485 nm, emission 528 nm) after which the plate contents were aspirated into 5% Virkon, and disposed of after autoclaving. Percentage inhibition for each test compound was calculated using the following equation: %Inhibition=100-TEST COMPOUND-BLANK/NO INHIBITION-BLANK∗100)\nEC50 values for standard inhibitors were determined using non-linear regression curve-fitting within Activity Base data analysis template."}, "female gametocytes": {"tested_on": "female gametocytes", "experiment": "Female gametocyte functional viability assay", "type": "cell-based", "settings": "Plasmodium falciparum"}, "[7]": {"tested_on": "Dd2 DDD107498 (PfeEF2 Y186N)", "experiment": "microbe, parasite or virus in culture", "type": "cell-based", "settings": "Plasmodium falciparum"}, "Cam3.I (MRA1240)": {"tested_on": "Cam3.I (MRA1240)", "experiment": "microbe, parasite or virus in culture", "type": "cell-based", "settings": "Plasmodium falciparum"}, "CYP 3A4": {"molecular_target": "CYP 3A4 (Homo sapiens, UniProt P08684)", "sequence (P08684 whole entry, species assumed)": "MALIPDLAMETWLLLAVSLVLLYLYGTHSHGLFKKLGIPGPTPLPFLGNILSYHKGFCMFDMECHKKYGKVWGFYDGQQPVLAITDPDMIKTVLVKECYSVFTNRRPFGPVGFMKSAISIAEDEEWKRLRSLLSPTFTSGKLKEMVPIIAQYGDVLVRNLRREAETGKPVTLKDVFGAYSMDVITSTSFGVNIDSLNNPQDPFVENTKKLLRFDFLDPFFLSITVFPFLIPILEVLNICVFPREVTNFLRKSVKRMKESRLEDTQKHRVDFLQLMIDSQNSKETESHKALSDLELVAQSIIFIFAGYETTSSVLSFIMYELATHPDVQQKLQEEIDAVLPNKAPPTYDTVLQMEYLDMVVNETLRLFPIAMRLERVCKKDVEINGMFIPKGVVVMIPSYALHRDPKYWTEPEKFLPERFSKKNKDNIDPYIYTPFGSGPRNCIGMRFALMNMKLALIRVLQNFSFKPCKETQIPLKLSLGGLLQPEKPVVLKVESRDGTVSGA", "experiment": "CYP inhibition", "type": "in vitro ADME"}, "Plasma protein binding": {"experiment": "Plasma protein binding", "type": "in vitro ADME", "settings": "mouse, read-out: Plasma protein binding (% bound)"}, "[8]": {"experiment": "Single dose pharmacokinetics in SCID mice", "type": "in vivo", "settings": "female, C.B-17/IcrHsd-Prkdc^scidLyst^bg (SCID), mouse, plasma; infected SCID mice, oral, 50 mg/Kg", "method": "as §1"}, "in vitro [9]": {"experiment": "in vitro", "type": "in vitro ADME", "settings": "human, plasma"}, "[10]": {"settings": "both sexes, in vivo, rats, 100 mg/kg body weight"}, "[11]": {"settings": "female, in vivo, female, day 1, 100 mg/kg bw"}, "[12]": {"settings": "female, in vivo, female, day 14, 100 mg/kg bw"}, "[13]": {"settings": "male, in vivo, male, day 1, 100 mg/kg bw"}, "[14]": {"settings": "male, in vivo, male, day 14, 100 mg/kg bw"}}, "note": "Where two headings read alike, the source gives them in different places."}
{"compound": "O=C(NO)c1ccc(Cn2cc(-c3ccc(CN4CCCC4)cc3)nn2)cc1", "note": "[FNDR-20123]", "values": [{"measurement": "remaining at 4 h", "setting": "in vitro [1]", "value": 88.9, "unit": "%"}, {"measurement": "IC50", "setting": "CYP2C19", "value": "> 60", "unit": "µM"}, {"measurement": "remaining at 4 h", "setting": "in vitro [2]", "value": 97.7, "unit": "%"}, {"measurement": "IC50", "setting": "PfHDAC1", "value": 0.031, "unit": "µM"}, {"measurement": "IC50", "setting": "Dd2", "value": 0.0175, "unit": "µM"}, {"measurement": "Microsomal stability (% remaining at 120 min)", "setting": "Microsomal stability", "value": 76.15, "unit": "%"}, {"measurement": "remaining at 2 h, 10 µM", "setting": "Microsomal stability; mouse, liver microsomes, read-out: Microsomal stability (% remaining at 120 min)", "value": "> 75", "unit": "%"}, {"measurement": "IC50", "setting": "CYP 2D6", "value": 28, "unit": "µM"}, {"measurement": "Accumulation (toxicokinetic profile)", "setting": "[3]; 100 mg/kg bw oral gavage, 14 days", "value": "no accumulation"}, {"measurement": "Cmax", "setting": "[3]; [10]", "value": 1.1, "unit": "µM"}, {"measurement": "half-life", "setting": "[3]; [10]", "value": 5.5, "unit": "h"}, {"measurement": "half-life", "setting": "[3]; female, blood, female, day 1, 100 mg/kg bw", "value": "3.21 ± 0.41", "unit": "h"}, {"measurement": "AUC(0-inf)", "setting": "[3]; [11]", "value": "0.448 ± 0.113", "unit": "µg·h/mL"}, {"measurement": "AUC(0-t)", "setting": "[3]; [11]", "value": "0.345 ± 0.0716", "unit": "µg·h/mL"}, {"measurement": "Cmax", "setting": "[3]; [11]", "value": "0.229 ± 0.0693", "unit": "µg/mL"}, {"measurement": "Tmax", "setting": "[3]; [11]", "value": "0.28 ± 0.21", "unit": "h"}, {"measurement": "AUC(0-inf)", "setting": "[3]; [12]", "value": "0.573 ± 0.0231", "unit": "µg·h/mL"}, {"measurement": "AUC(0-t)", "setting": "[3]; [12]", "value": "0.48 ± 0.0497", "unit": "µg·h/mL"}, {"measurement": "Cmax", "setting": "[3]; [12]", "value": "0.207 ± 0.0361", "unit": "µg/mL"}, {"measurement": "Tmax", "setting": "[3]; [12]", "value": "0.14 ± 0.1", "unit": "h"}, {"measurement": "half-life", "setting": "[3]; male, blood, male, day 1, 100 mg/kg bw", "value": "5.72 ± 4.1", "unit": "h"}, {"measurement": "half-life", "setting": "[3]; male, blood, male, day 14, 100 mg/kg bw", "value": "2.3 ± 0.55", "unit": "h"}, {"measurement": "AUC(0-inf)", "setting": "[3]; [13]", "value": "1.28 ± 0.282", "unit": "µg·h/mL"}, {"measurement": "AUC(0-t)", "setting": "[3]; [13]", "value": "0.712 ± 0.234", "unit": "µg·h/mL"}, {"measurement": "Cmax", "setting": "[3]; [13]", "value": "0.42 ± 0.174", "unit": "µg/mL"}, {"measurement": "Tmax", "setting": "[3]; [13]", "value": "0.33 ± 0.14", "unit": "h"}, {"measurement": "AUC(0-inf)", "setting": "[3]; [14]", "value": "1.08 ± 0.216", "unit": "µg·h/mL"}, {"measurement": "AUC(0-t)", "setting": "[3]; [14]", "value": "0.957 ± 0.181", "unit": "µg·h/mL"}, {"measurement": "Cmax", "setting": "[3]; [14]", "value": "0.703 ± 0.362", "unit": "µg/mL"}, {"measurement": "Tmax", "setting": "[3]; [14]", "value": "0.19 ± 0.1", "unit": "h"}, {"measurement": "half-life", "setting": "[4]; im, intramuscular", "value": 8.72, "unit": "h"}, {"measurement": "half-life", "setting": "[4]; po", "value": 2, "unit": "h"}, {"measurement": "half-life", "setting": "[4]; sc, subcutaneous", "value": 9.21, "unit": "h"}, {"measurement": "AUC(0-t)", "setting": "[4]; im, intramuscular, 50 mg/Kg", "value": 7.22, "unit": "µg·h/mL"}, {"measurement": "Cmax", "setting": "[4]; im, intramuscular, 50 mg/Kg", "value": 15.7, "unit": "µg/mL"}, {"measurement": "Tmax", "setting": "[4]; im, intramuscular, 50 mg/Kg", "value": 0.08, "unit": "h"}, {"measurement": "AUC(0-t)", "setting": "[4]; sc, subcutaneous, 50 mg/Kg", "value": 11, "unit": "µg·h/mL"}, {"measurement": "Cmax", "setting": "[4]; sc, subcutaneous, 50 mg/Kg", "value": 14, "unit": "µg/mL"}, {"measurement": "Tmax", "setting": "[4]; sc, subcutaneous, 50 mg/Kg", "value": 0.08, "unit": "h"}, {"measurement": "AUC(0-t)", "setting": "[4]; oral, 50 mg/Kg", "value": 0.327, "unit": "µg·h/mL"}, {"measurement": "Cmax", "setting": "[4]; oral, 50 mg/Kg", "value": 0.184, "unit": "µg/mL"}, {"measurement": "Tmax", "setting": "[4]; oral, 50 mg/Kg", "value": 1, "unit": "h"}, {"measurement": "t1/2", "setting": "[4]; oral, 50 mg/Kg", "value": 2.02, "unit": "h"}, {"measurement": "remaining at 4 h", "setting": "in vitro [5]", "value": 89.2, "unit": "%"}, {"measurement": "IC50", "setting": "[6]; read-out: Anti-malarial IC50", "value": 0.04, "unit": "µM"}, {"measurement": "IC50", "setting": "[6]; read-out: Anti-malarial activity Asexual Blood Stage IC50", "value": 0.042, "unit": "µM"}, {"measurement": "IC50", "setting": "female gametocytes", "value": "> 5", "unit": "µM"}, {"measurement": "IC50", "setting": "[7]", "value": 0.0209, "unit": "µM"}, {"measurement": "IC50", "setting": "Cam3.I (MRA1240)", "value": 0.0221, "unit": "µM"}, {"measurement": "IC50", "setting": "CYP 3A4", "value": 27, "unit": "µM"}, {"measurement": "fraction unbound", "setting": "Plasma protein binding", "value": "> 0.7"}, {"measurement": "AUC(0-t)", "setting": "[8]", "value": 1.34, "unit": "µg·h/mL"}, {"measurement": "Cmax", "setting": "[8]", "value": 0.46, "unit": "µg/mL"}, {"measurement": "Tmax", "setting": "[8]", "value": 1, "unit": "h"}, {"measurement": "remaining at 4 h", "setting": "in vitro [9]", "value": 98.9, "unit": "%"}]}
